ChEMBL document CHEMBL4825780 (ACS Med Chem Lett, 2021)
Activity calls are given as the source filed them. The rule behind the calls is not given here.

What was measured:
[1] = target: Cyclin-dependent kinase 8 (Homo sapiens, UniProt P49336)
Description: Inhibition of human CDK8 in human Jurkat cells assessed as inhibition of STAT1 phosphorylation at S727 residue measured after 24 hrs by Western blot assay

[2] = target: Cyclin-C/Cyclin-dependent kinase 19 (Homo sapiens, UniProt Q9BWU1); experiment: Inhibition of tracer 236 binding to recombinant human GST/His-tagged CDK11 (1 to 502 residues)/Cyclin C( 1 to 283 residues) expressed in insect cells by Lanthascreen assay
CDK8/Cyclin C = CDK8/Cyclin C (Homo sapiens, UniProt P49336); experiment: Inhibition of tracer 236 binding to recombinant human His-tagged full length CDK8/Cyclin C expressed in baculovirus expression system by Lanthascreen assay
[3] = Metabolic stability in mouse hepatocytes assessed as half life; format: ADME, cell-based, Hepatocyte
[4] = Metabolic stability in mouse hepatocytes assessed as intrinsic clearance; format: ADME, cell-based, Hepatocyte
[5] = Volume of distribution at steady state in C57Bl/6 mouse at 10 mg/kg, po or 2 mg/kg, iv; format: ADME, organism-based; settings: in vivo, read-out: Vdss
[6] = Cmax in C57Bl/6 mouse at 10 mg/kg, po; format: ADME, organism-based; design: route oral, dose 10 mg/kg; settings: in vivo
[7] = Half life in C57Bl/6 mouse at 10 mg/kg, po; format: ADME, organism-based; settings: in vivo
[8] = Oral bioavailability in C57Bl/6 mouse at 10 mg/kg; format: ADME, organism-based; settings: in vivo
[9] = target: T1, Serine/threonine-protein kinase 16 (Homo sapiens, UniProt O75716); experiment: Inhibition of human wild type partial length STK16 (G11 to I305) expressed in bacterial expression system by Kinomescan method
[10] = target: T1, Serine/threonine-protein kinase 16; experiment: Inhibition of human wild type partial length STK16 (G11 to I305 residues) expressed in bacterial expression system at 1 uM measured by Kinomescan method
[11] = Clearance in C57Bl/6 mouse at 10 mg/kg, po or 2 mg/kg, iv; format: ADME, organism-based; settings: in vivo
[12] = system: T2, Receptor-type tyrosine-protein kinase FLT3 (Homo sapiens), P36888 [D835V]; experiment: Inhibition of human partial length FLT3 […] mutant (V592 to Y969 residues) expressed in mammalian expression system at 1 uM measured by Kinomescan method
T2 sequence (whole entry): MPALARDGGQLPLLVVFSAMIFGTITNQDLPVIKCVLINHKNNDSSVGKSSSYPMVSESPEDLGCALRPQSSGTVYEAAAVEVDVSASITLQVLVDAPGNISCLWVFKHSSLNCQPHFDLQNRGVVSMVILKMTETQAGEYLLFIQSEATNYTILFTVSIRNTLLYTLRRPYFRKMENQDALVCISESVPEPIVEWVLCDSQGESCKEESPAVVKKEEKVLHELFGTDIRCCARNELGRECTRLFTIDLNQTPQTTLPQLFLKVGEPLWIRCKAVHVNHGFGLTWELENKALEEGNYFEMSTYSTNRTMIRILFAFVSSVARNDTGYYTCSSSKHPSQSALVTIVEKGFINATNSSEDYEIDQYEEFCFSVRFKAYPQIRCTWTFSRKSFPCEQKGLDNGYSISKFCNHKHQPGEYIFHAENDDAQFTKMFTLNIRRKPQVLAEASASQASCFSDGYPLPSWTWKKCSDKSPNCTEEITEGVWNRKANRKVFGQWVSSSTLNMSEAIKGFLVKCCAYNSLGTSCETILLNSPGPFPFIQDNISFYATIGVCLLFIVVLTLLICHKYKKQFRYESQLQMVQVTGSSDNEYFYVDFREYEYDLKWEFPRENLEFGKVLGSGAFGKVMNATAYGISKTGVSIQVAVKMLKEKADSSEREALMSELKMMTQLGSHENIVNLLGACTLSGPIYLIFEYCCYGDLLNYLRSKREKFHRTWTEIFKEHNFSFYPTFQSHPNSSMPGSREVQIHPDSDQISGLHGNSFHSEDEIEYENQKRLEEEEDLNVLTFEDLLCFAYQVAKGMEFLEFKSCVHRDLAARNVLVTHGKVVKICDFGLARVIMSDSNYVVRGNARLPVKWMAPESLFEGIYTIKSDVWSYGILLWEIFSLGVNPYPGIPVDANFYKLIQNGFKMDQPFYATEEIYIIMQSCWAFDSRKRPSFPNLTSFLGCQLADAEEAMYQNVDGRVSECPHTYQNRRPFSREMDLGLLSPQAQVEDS

[13] = AUC in C57Bl/6 mouse at 10 mg/kg, po; format: ADME, organism-based; design: dose 10 mg/kg; settings: in vivo

Sequence of CDK8/Cyclin C (P49336 whole entry): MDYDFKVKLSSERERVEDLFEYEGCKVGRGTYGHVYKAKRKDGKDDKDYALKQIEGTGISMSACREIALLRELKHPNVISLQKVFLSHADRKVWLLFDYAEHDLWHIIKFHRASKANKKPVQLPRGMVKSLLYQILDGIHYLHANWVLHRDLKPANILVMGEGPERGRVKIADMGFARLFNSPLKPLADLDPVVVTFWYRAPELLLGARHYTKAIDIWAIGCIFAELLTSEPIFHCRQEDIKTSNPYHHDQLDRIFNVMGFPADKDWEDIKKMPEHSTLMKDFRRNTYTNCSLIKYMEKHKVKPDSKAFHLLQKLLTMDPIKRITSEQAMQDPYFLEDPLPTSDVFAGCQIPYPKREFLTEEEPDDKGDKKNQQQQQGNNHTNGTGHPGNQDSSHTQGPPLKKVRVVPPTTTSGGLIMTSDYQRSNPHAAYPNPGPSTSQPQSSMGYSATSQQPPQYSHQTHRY
Sequence of CDK8/Cyclin C (P24863 whole entry, further chain): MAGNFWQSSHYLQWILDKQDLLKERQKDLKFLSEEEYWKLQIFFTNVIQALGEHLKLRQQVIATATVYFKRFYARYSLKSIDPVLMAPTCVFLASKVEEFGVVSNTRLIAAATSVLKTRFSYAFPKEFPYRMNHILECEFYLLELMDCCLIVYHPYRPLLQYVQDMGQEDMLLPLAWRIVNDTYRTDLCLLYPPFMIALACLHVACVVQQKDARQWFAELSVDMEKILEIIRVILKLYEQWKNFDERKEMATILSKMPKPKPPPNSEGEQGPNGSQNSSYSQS
Sequence of Cyclin-C/Cyclin-dependent kinase 19 (Q9BWU1 whole entry, the tested form may be a part): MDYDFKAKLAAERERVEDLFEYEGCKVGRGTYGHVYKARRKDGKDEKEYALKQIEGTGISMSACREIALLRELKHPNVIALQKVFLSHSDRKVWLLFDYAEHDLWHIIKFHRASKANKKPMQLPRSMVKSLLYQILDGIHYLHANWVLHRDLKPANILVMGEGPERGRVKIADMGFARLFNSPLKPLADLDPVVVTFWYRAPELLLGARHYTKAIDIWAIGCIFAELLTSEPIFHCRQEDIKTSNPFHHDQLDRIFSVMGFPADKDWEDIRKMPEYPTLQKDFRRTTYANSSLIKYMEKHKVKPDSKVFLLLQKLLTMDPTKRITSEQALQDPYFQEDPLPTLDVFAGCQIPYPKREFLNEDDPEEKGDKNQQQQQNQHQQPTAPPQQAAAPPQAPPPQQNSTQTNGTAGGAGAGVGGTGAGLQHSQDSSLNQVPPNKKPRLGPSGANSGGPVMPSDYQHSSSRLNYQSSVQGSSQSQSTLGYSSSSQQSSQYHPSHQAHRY
Sequence of Cyclin-C/Cyclin-dependent kinase 19 (P24863 whole entry, further chain, the tested form may be a part): as the sequence (P24863 whole entry, further chain) above
T1 sequence (O75716 whole entry, the tested form may be a part): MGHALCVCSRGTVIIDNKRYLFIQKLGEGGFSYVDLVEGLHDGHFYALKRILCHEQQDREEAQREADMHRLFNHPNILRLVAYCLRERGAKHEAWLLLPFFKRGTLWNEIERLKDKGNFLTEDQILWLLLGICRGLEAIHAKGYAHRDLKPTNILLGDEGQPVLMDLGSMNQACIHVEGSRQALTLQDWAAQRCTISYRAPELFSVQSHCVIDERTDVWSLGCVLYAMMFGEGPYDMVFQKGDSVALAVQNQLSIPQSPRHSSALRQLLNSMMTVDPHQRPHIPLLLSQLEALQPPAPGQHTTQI
Sequence of Cyclin-dependent kinase 8 (P49336 whole entry, the tested form may be a part): as the sequence (P49336 whole entry) above

| SMILES | IC50 [2] | IC50 (CDK8/Cyclin C) | also measured |
| --- | --- | --- | --- |
| Cc1n[nH]c2ncc(C(=O)N3CCC[C@H]3c3ccc(Cl)cc3)cc12 | – | – | IC50 [1]: 0.003 µM |
| O=C1NCCC12CCN(c1c(-c3ccc4ncnn4c3)cnc3[nH]ccc13)CC2 | 1.02 µM | 0.274 µM | – |
| Cn1ncc2cc(-c3cnc4[nH]ncc4c3N3CCC4(CCNC4=O)CC3)ccc21 | 0.214 µM | 0.178 µM | half-life [3]: 11 min; intrinsic clearance (CLint) [4]: 59 µL/min/mg |
| Cn1ncc2cc(-c3cnc4[nH]nc(Cl)c4c3N3CCC4(CCNC4=O)CC3)ccc21 | 0.002 µM | 0.001 µM | Vd [5]: 0.8 L/kg; IC50 [1]: 0.002 µM; Cmax [6]: 0.104 µg/mL; half-life [7]: 78 min; bioavailability [8]: 8%; IC50 [9]: 0.107 µM; inhibition [10]: Active; clearance [11]: 1.02 L/h/kg; half-life [3]: 46 min; intrinsic clearance (CLint) [4]: 15 µL/min/mg; inhibition [12]: Active; AUC [13]: 0.864 µg·h/mL |
| Cn1ncc2cc(-c3cnc4[nH]ccc4c3N3CCC4(CC3)CNC(=O)O4)ccc21 | 0.006 µM | 0.007 µM | – |
| Cn1ncc2cc(-c3cnc4[nH]ccc4c3N3CCC4(CCNC4=O)CC3)ccc21 | – | – | half-life [3]: 9 min; intrinsic clearance (CLint) [4]: 78 µL/min/mg |
| O=C1NCCC12CCN(c1c(-c3ccn4ccnc4c3)cnc3[nH]ccc13)CC2 | 0.068 µM | 0.076 µM | – |
| O=C1NCCC12CCN(c1c(-c3ccc4ncsc4c3)cnc3[nH]ccc13)CC2 | 0.08 µM | 0.025 µM | – |
| O=C1NCCC12CCN(c1c(-c3ccc4[nH]cnc4c3)cnc3[nH]ccc13)CC2 | 0.017 µM | 0.005 µM | – |
| Cn1ncc2cc(-c3cnc4[nH]ccc4c3N3CCC4(CCCNC4=O)CC3)ccc21 | 0.003 µM | – | – |
| Cn1ncc2cc(-c3cnc4[nH]ccc4c3N3CCC4(CC3)NC(=O)NC4=O)ccc21 | 0.002 µM | – | – |
| Cn1ncc2cc(-c3cnc4[nH]cnc4c3N3CCC4(CCNC4=O)CC3)ccc21 | 0.005 µM | 0.01 µM | half-life [3]: 5 min; intrinsic clearance (CLint) [4]: 158 µL/min/mg |
| O=C1NCCC12CCN(c1c(-c3ccc4scnc4c3)cnc3[nH]ccc13)CC2 | 0.014 µM | 0.006 µM | – |
| Cn1ncc2cc(-c3cnc4[nH]ccc4c3N3CC4(CNC(=O)C4)C3)ccc21 | 0.698 µM | 0.916 µM | – |
| Cn1ncc2cc(-c3cnc4[nH]ccc4c3N3CCC4(CCNC4=O)C3)ccc21 (stereo not drawn) | 0.029 µM | 0.055 µM | – |
| Cn1ncc2cc(-c3cnc4[nH]cc(Cl)c4c3N3CCC4(CCNC4=O)CC3)ccc21 | 0.01 µM | 0.002 µM | half-life [3]: 11 min; intrinsic clearance (CLint) [4]: 64 µL/min/mg |
| Cn1ncc2cc(-c3cnc4[nH]ccc4c3N3CC4(CCNC4=O)C3)ccc21 | 0.426 µM | 0.538 µM | – |
| Cn1ncc2cc(-c3cnc4[nH]ccc4c3N3CCC4(CC3)CNC4=O)ccc21 | 0.006 µM | 0.006 µM | – |
| Cn1cnc2cc(-c3cnc4[nH]ccc4c3N3CCC4(CCNC4=O)CC3)ccc21 | 0.05 µM | 0.032 µM | – |
